Data on three compounds can be found in US11208412B2 (DAEGU-GYEONGBUK MEDICAL INNOVATION FOUNDATION, priority 2017, dated 2021).

Common to all, as to experiment: Kinase selectivity, DiscoverX scanMAX Kinase assay panel (% control)
Format in all cases: binding

For assay [1], the target named is T1, kinases of the scanMAX Kinase assay panel (Homo sapiens, UniProt Q8NFD2).
T1 construct: purchased DiscoverX Co. (contract measurement) scanMAX Kinase assay panel
T1 sequence (Q8NFD2 1-765): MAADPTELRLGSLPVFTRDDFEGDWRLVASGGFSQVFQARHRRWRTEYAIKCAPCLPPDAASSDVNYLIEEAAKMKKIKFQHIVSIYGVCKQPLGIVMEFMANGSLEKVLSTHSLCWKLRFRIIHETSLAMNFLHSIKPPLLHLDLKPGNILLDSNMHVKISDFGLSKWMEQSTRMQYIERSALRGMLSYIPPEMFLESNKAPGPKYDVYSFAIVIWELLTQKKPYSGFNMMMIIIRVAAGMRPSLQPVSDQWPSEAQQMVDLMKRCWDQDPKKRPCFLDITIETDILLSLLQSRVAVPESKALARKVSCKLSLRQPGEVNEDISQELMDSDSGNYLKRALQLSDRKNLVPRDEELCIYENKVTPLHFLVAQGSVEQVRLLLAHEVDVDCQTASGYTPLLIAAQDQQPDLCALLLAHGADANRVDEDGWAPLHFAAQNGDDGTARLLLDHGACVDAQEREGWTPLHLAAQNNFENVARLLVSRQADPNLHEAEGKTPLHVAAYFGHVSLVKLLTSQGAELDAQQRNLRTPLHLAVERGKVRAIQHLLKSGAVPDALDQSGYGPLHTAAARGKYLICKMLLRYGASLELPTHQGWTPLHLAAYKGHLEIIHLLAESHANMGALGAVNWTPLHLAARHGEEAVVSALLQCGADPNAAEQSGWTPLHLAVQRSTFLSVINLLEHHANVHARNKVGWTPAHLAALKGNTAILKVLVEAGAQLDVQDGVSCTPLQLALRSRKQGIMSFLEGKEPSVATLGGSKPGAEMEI
To be noted: ANKK1; 1 uM. The essentials: (§1)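 Single-point screen, 1 uM cpd in DMSO. % ctrl = (cpd − pos ctrl)/(neg ctrl − pos ctrl)×100; pos ctrl = 0%, DMSO neg ctrl = 100%. Hit cutoff <35%.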

Assay [2] concerns the target T2, kinases of the scanMAX Kinase assay panel (Homo sapiens, UniProt Q96D53).
T2 construct: purchased DiscoverX Co. (contract measurement) scanMAX Kinase assay panel
T2 sequence (Q96D53 1-544): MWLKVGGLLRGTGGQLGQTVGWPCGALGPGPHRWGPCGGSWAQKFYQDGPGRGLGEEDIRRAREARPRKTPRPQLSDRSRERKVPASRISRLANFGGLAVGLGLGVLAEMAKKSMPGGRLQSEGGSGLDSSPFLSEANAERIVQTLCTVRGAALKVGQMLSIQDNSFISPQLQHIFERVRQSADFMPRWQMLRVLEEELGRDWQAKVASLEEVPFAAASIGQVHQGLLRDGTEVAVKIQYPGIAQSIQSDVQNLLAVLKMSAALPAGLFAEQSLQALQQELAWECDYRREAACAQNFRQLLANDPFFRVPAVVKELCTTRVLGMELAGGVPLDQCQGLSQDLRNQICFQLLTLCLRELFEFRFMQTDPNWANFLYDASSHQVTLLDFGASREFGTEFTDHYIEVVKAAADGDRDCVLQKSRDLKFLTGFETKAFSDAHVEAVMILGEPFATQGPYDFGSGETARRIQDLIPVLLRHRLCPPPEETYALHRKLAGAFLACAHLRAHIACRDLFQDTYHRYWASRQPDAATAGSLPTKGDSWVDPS
The following applies: ADCK4; 1 uM. The procedure, abridged:
as §1

The target of assay [3] is T3, kinases of the scanMAX Kinase assay panel (Homo sapiens, UniProt P00533, DEL752-759).
T3 construct: purchased DiscoverX Co. (contract measurement) scanMAX Kinase assay panel
The following applies: EGFR(S752-I759de1); 1 uM. The procedure, abridged:
as §1

The target in assay [4] is T4, kinases of the scanMAX Kinase assay panel (Homo sapiens, UniProt Q13705).
T4 construct: purchased DiscoverX Co. (contract measurement) scanMAX Kinase assay panel
The following applies: ACVR2B; 1 uM. The procedure, abridged:
as §1

T3 sequence (P00533 with tags, fused parts or gaps DEL752-759): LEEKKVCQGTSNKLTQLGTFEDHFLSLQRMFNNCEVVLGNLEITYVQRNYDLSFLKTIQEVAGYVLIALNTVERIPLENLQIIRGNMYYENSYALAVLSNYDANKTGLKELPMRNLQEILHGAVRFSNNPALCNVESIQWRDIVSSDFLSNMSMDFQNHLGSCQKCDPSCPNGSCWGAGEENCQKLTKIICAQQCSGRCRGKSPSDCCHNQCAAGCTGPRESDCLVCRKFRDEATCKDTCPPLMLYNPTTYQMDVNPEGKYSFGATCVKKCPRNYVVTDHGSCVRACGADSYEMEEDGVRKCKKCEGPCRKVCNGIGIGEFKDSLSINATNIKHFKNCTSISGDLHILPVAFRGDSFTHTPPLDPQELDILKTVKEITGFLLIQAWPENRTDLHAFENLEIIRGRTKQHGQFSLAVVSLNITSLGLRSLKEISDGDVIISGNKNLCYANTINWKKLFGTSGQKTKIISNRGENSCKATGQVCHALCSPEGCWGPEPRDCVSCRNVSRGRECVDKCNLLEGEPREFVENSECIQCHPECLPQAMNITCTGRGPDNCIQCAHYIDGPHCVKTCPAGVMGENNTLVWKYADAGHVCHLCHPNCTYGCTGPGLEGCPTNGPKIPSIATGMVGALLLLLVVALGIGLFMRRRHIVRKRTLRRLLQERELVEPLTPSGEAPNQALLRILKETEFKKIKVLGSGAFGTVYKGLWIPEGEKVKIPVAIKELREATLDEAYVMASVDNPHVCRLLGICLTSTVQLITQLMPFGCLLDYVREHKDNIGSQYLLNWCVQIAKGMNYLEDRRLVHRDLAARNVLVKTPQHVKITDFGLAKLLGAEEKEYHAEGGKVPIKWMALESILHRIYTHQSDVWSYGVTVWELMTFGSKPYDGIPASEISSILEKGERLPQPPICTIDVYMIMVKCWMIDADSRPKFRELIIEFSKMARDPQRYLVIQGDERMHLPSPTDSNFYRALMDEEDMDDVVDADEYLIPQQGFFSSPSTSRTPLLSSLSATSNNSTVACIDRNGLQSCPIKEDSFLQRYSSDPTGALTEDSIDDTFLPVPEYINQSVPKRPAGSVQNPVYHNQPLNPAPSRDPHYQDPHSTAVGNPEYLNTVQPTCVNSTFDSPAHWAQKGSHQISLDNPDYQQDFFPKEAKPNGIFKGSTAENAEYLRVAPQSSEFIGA
T4 sequence (Q13705 19-512): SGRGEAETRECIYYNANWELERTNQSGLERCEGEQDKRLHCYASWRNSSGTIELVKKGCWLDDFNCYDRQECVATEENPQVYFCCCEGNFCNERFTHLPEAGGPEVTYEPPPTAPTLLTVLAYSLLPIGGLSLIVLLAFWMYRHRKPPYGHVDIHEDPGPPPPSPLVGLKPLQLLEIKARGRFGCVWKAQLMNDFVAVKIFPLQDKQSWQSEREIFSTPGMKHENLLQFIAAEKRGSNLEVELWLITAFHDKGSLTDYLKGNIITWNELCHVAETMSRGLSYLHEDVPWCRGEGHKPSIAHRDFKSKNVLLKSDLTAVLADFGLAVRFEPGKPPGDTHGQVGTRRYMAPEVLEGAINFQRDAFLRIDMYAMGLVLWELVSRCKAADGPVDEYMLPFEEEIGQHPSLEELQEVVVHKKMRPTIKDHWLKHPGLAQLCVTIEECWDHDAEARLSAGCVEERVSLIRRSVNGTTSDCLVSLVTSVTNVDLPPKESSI

In the case of `CC1(Nc2nc(Nc3cnn([C@H]4CCN(C5COC5)C[C@@H]4F)c3Cl)nc3[nH]cc(C#N)c23)CC1` [Example 52, 2-((5-chloro-1-((3S,4S)-3-fluoro-1-(oxetane-3-yl)piperidine-4-yl)-1H-pyrazole-4-yl)amino)((1-methylcyclopropyl)amino)-7H-pyrrolo[2,3-d]pyrimidine-5-carbonitrile], the remaining binding at 1 µM is 15% in assay [1], 76% in assay [2], 94% in assay [3] and 85% in assay [4].

In the case of `CCNc1nc(Nc2ccc(C(=O)N3CCC(N4CCOCC4)CC3)cc2OC)nc2[nH]cc(C(F)(F)F)c12` [Example 104, (4-((4-(ethylamino)-5-(trifluoromethyl)-7H-pyrrolo[2,3-d]pyrimidine-2-yl)amino)-3-methoxyphenyl)(4-morpholinopiperidine-1-yl)methanone], the remaining binding at 1 µM in assay [1] turned out to be 95%; in assay [2] it was 100%; in assay [3] it was 100%; in assay [4], 100%.

For the compound `CNc1nc(Nc2ccc(C(=O)N3CCOCC3)cc2OC)nc2[nH]cc(C#N)c12` [Example 1, 2-((2-methoxy-4-(morpholine-4-carbonyl)phenyl)amino)-4-(methylamino)-7H-pyrrolo[2,3-d]pyrimidine-5-carbonitrile], the remaining binding at 1 µM stood at 82% in assay [1], 100% in assay [2], 76% in assay [3] and 100% in assay [4].
